Results taken from patent publication US9533953B2, “Method of preparation of crystal forms of 4-(cyclopropylmethoxy)-n-(3,5-dichloro-1-oxidopyridyn-4-yl)-5-methoxypyridine-2-carboxamide and crystal forms thereof” (SANOFI, priority 2012, dated 2017).

Key:
Type in all cases: physicochemical
[1] = Behaviour under mechanical strain (mortar grinding, jet-milling); conditions: for effect of jet-milling on the crystalline form: DSC / XRPD
Procedure: Crystal Form A is of particular interest because of its behaviour under mechanical strain. The effect of 30 seconds of mortar grinding was evaluated. […] The behaviour of amorphous phase present in ground form A was also studied. No recrystallization of the amorphous phase was detected through sorption/desorption of water at 25° C. Nevertheless, maturation of ground samples in pure water for 6 days at room temperature led to partial recrystallization of the amorphous phase into form A.
A particle size close to 5 μm could be reached. The DSC analyses indicate that there is no modification of the crystalline structure before and after jet-milling of Form A.
A particle size close to 5 μm could be reached.

[2] = Thermo-Gravimetric Analysis (TGA)
Procedure: Analyses are carried out on a T.A. instruments TGAQ500 analyzer. Mass calibration is performed with 10 and 100 mg certified masses and the instrument is temperature-calibrated with alumel and nickel standards (Curie points of respectively 154° C. and 354° C.). Samples are exposed to a constant nitrogen stream of 60 mL/min and temperature ranges from 20° C. to 250° C. at a 5° C./min rate. The quantity of product lies between 2 and 5 mg. The powder is deposited in an open aluminum sample pan, which is itself placed in a platinum pan.

[3] = Physical stability of the crystal form on heating, humidity and storage (XRPD); conditions: for temperature of transformation into another crystal form: A into B, D into E, E into B, G desolvates into D; for desolvation behaviour: slight heating / upon heating
Procedure: High-resolution diagrams are recorded at ambient conditions on a PANalytical X'Pert Pro MPD powder diffractometer using the Bragg-Brentano (vertical 0-20 configuration) parafocusing geometry coupled with a X'Celerator detector. A sealed copper anode X-ray tube is used, running at 45 kV and 40 mA levels. An incident beam monochromator (Johansson type: a symmetrically cut curved germanium (111) crystal) produces pure Cu Kα1 radiation (λ[…]=1.54060 Å). A thin layer of the product is deposited on a single-crystal silicon wafer, cut out according to Si (510) crystallographic orientation that, by systematic extinction, impedes any Bragg reflection. In order to bring more crystallites into the diffraction position and thus reduce the influence of particle statistics on the measurements, a sample spinner is used. The spinner rotation speed is set at 1 revolution per second. The angular range extends from 2 to 50° in 2θ, with a 0.02° step size in 2θ. A variable counting time from 100 to 2500 seconds per step was used.
XRPD analyses are carried out on a Siemens-Bruker D5000 Matic powder diffractometer using the Bragg-Brentano (vertical θ-2θ configuration) parafocusing geometry. A thin layer of the product is deposited on a single-crystalline silicon wafer, cut out according to Si(510) crystallographic orientation that, by systematic extinction, impedes any Bragg reflection. A sealed cobalt anode X-ray tube running at 40 kV and 30 mA levels is used. Two lines are typically emitted: CoKα1 (λ=1.7890 Å) and CoKα2 (λ=1.7929 Å). […] The primary beam passes through a parallel plate collimator (0.2 mm Soller slits), then through a divergence slit (0.2 mm). A Braun 50 M multicanal linear detector completes the setup. It has a 10°-wide detection window in angle 2θ.

[4] = Water-Activity Isotherm (DVS), water sorption/desorption at 25° C.
Procedure: All experiments are performed on a DVS-1 automated gravimetric vapor sorption analyser (Surface Measurement Systems Ltd., London, UK). The DVS-1 measures the uptake and loss of vapor gravimetrically using a Cahn D200 recording ultra-microbalance with a mass resolution of ±0.1 μg. A controlled relative humidity is generated by mixing different proportions of dry and water saturated carrier gas streams (monitored by mass flow controllers). The temperature is maintained constant, ±0.1° C., by enclosing the entire system in a temperature-controlled incubator. A sample size between 4 and 10 mg is used. Prior to being exposed to any water vapor the samples are dried at 0% RH to remove any surface water present and establish a dry, baseline mass. Next, the samples are exposed to an increasing relative humidity raised by a step of 5% RH from 0% to 90% RH.

COc1cnc(C(=O)Nc2c(Cl)c[n+]([O-])cc2Cl)cc1OCC1CC1 [Crystal Form A, 4-(cyclopropylmethoxy)-N-(3,5-dichloro-1-oxidopyridin-4-yl)-5-methoxypyridine-2-carboxamide]
amorphous phase after grinding (XRPD) ([1]; 30 seconds of mortar grinding): appearance of amorphous phase was detected
polymorphic transition after grinding (XRPD) ([1]; 30 seconds of mortar grinding): no observed polymorphic transition
particle size reached by jet-milling [1]: ~5 μm
effect of jet-milling on the crystalline form [1]: without any impact on the crystalline form
temperature beyond which thermal decomposition is observed [2]: > 190 °C
TGA weight loss ([2]; from room temperature up to 190° C.): no weight loss
temperature of transformation into another crystal form ([3]; upon heating): above 100 °C
hygroscopicity ([4]; 25° C. isotherm): not hygroscopic
water uptake ([4]; 25° C., up to 90% of relative humidity (RH)): no significant water uptake

COc1cnc(C(=O)Nc2c(Cl)c[n+]([O-])cc2Cl)cc1OCC1CC1 [Crystal Form B, 4-(cyclopropylmethoxy)-N-(3,5-dichloro-1-oxidopyridin-4-yl)-5-methoxypyridine-2-carboxamide]
temperature beyond which thermal decomposition is observed [2]: > 190 °C

COc1cnc(C(=O)Nc2c(Cl)c[n+]([O-])cc2Cl)cc1OCC1CC1 [Crystal Form C, 4-(cyclopropylmethoxy)-N-(3,5-dichloro-1-oxidopyridin-4-yl)-5-methoxypyridine-2-carboxamide]
behaviour on storage ([3]; 15 months of storage in ambient conditions): transformed into Crystal Form D and amorphous phase

COc1cnc(C(=O)Nc2c(Cl)c[n+]([O-])cc2Cl)cc1OCC1CC1 [Crystal Form D, 4-(cyclopropylmethoxy)-N-(3,5-dichloro-1-oxidopyridin-4-yl)-5-methoxypyridine-2-carboxamide]
particle size reached by jet-milling [1]: ~5 μm
effect of jet-milling on the crystalline form [1]: without any impact on the crystalline form
temperature beyond which thermal decomposition is observed [2]: > 205 °C
TGA weight loss ([2]; between 20 and 100° C.): 0.2%
TGA weight loss ([2]; between 100 and 205° C.): no weight loss
temperature range in which the form is stable / physically unaltered ([3]; upon heating): up to 110 °C
temperature of transformation into another crystal form ([3]; upon heating): 110 °C
total water gain ([4]; 25° C., at 90% RH): 8.7%
total water gain expressed as moles of water ([4]; 25° C., at 90% RH): 2 moles of water
loss of water, last desorption step ([4]; 25° C., between 70% and 0% RH, without hysteresis): 1.3%
water desorption, second desorption step ([4]; 25° C., between 75% and 70% RH): 6.4%
water uptake, second sorption step ([4]; 25° C., between 85% and 90% RH): 6.9%

COc1cnc(C(=O)Nc2c(Cl)c[n+]([O-])cc2Cl)cc1OCC1CC1 [Crystal Form E, 4-(cyclopropylmethoxy)-N-(3,5-dichloro-1-oxidopyridin-4-yl)-5-methoxypyridine-2-carboxamide]
TGA weight loss ([2]; between 100 and 170° C.): 0.8%
TGA weight loss ([2]; from room temperature to 100° C.): no weight loss
stability under room conditions ([3]; room conditions): stable under room conditions
temperature of transformation into another crystal form ([3]; upon heating): 140 °C

COc1cnc(C(=O)Nc2c(Cl)c[n+]([O-])cc2Cl)cc1OCC1CC1 [Crystal Form G, 4-(cyclopropylmethoxy)-N-(3,5-dichloro-1-oxidopyridin-4-yl)-5-methoxypyridine-2-carboxamide]
temperature of transformation into another crystal form ([3]; upon heating): 70 °C

COc1cnc(C(=O)Nc2c(Cl)c[n+]([O-])cc2Cl)cc1OCC1CC1 [Crystal Form H, 4-(cyclopropylmethoxy)-N-(3,5-dichloro-1-oxidopyridin-4-yl)-5-methoxypyridine-2-carboxamide]
desolvation behaviour [3]: desolvates easily into Crystal Form D

COc1cnc(C(=O)Nc2c(Cl)c[n+]([O-])cc2Cl)cc1OCC1CC1 [Crystal Form I, 4-(cyclopropylmethoxy)-N-(3,5-dichloro-1-oxidopyridin-4-yl)-5-methoxypyridine-2-carboxamide]
desolvation behaviour [3]: desolvates easily into form D
